In patent US12077555B2, “STAT degraders and uses thereof” (Kymera Therapeutics, Inc., priority 2019, dated 2024) one finds DC50 data, which are given here for 12 molecules.

Like-named read-outs stand apart in the source and are kept apart here.

The target in the test is STAT3 (Homo sapiens, UniProt P40763). Nature of the test: STAT3 HiBiT degradation assay in transfected A549 cells. Further details: expressed in transfected cells; host or cells: A549. Type of test: cell-based. On the procedure: Compound preparation and Cell seeding: The transfected A549 cells were harvested from dish into cell culture medium and cell numbers counted. Cells were diluted with culture medium to the desired density and 30 μL of cell suspension (about 2000 cells/well) were added into each well of a 384-well cell culture plate as designated and transferred into 37° C. 5% CO2 incubator for 24 h. Compounds were dissolved to 10 mM stock solution and 12 μL of the stock solution was transferred to a 384 LDV-plate. 3 fold, 10-point dilution was performed by transferring 4 μL compound into 8 μL DMSO using a TECAN (EVO200) liquid handler. 30 μL of diluted compound from compound source plate was transferred into the cell plate as designated by using Echo550 and transferred into 37° C. 5% CO2 incubator for 24 h.
Sequence of STAT3 (P40763 whole entry): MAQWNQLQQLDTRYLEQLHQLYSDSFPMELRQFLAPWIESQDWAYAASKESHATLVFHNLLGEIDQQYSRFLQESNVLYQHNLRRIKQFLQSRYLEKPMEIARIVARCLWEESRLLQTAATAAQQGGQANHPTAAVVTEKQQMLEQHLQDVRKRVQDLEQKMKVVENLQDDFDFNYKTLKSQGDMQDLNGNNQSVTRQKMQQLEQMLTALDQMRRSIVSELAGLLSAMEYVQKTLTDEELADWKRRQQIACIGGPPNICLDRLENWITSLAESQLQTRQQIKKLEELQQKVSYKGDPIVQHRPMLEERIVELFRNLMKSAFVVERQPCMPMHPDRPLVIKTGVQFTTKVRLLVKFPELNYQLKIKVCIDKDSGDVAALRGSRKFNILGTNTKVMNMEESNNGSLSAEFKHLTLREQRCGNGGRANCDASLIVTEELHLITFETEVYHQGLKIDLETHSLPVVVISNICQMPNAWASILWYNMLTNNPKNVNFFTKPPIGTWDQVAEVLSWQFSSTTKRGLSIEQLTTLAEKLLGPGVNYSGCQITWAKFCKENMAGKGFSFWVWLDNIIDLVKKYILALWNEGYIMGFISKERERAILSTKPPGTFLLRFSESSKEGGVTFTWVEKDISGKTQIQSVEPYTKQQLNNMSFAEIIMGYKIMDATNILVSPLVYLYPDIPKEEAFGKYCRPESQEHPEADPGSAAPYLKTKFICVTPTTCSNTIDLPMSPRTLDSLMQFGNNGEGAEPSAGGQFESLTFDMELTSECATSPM
Detection: Plates were removed from incubators and equilibrated at room temperature for 15 minutes. Nano-Glo Hibit Lytic Detection reagent (Promega Cat #N3040) was thawed and equilibrated to room temperature before the experiment. 30 μL of Nano-Glo Hibit Lytic Detection reagent was added into each well to be detected. The plates were held at room temperature for 10 min followed by reading on EnSpire.
Data analysis: The remaining activity was calculated following the formula: Remaining Activity (%)=100%×(Lumsample−LumNC)/(LumPC−LumNC). Calculate the IC50 by fitting the curve using Xlfit (v5.3.1.3), equation 201: fit=(A+((B−A)/(1+((x/C)^D)))); A: Bottom; B: Top; C: IC50; and D: Slope.
The letter codes for STAT3 DC50 include: A (<0.01 μM), B (0.01-0.1 μM), C (0.1-1.0 μM), and D (>1.0 μM).
In general terms: With HiBiT, luminescence reflects the tagged protein that the partner subunit can reach.

Setting [1] is: A549, 24 h; read-out: STAT3 HiBiT A549 degradation 24 h: Average external-Abs DC50.

Take `Cn1c(=O)n(C(CCC(N)=O)C(=O)O)c2ccc(C[C@H]3CC[C@@H](CC(=O)N4CC[C@H]5CC[C@@H](C(=O)N[C@@H](CCC(N)=O)C(=O)NC(c6ccccc6)c6ccccc6)N5C(=O)[C@@H](NC(=O)c5cc6cc(C(=O)P(=O)(O)O)ccc6[nH]5)C4)CC3)cc21` (stereo partly drawn) [Compound I-255, 4-carbamoyl-2-(3-methyl-2-oxo-5-[[(1s,4s)-4-[2-[(5S,8S,10aR)-8-[[(1S)-3-carbamoyl-1-(diphenylmethylcarbamoyl)propyl]carbamoyl]-6-oxo-5-[5-(phosphonocarbonyl)-1H-indole-2-amido]-octahydropyrrolo[1,2-a][1,5]diazocin-3-yl]-2-oxoethyl]cyclohexyl]methyl]-1,3-benzodiazol-1-yl)butanoic acid]: the 50% degradation concentration (DC50) (read-out: STAT3 HiBiT A549 degradation 24 h: Average external-Abs DC50; A549, 24 h) was greater than 1000 nM.

Regarding `Cn1c(=O)n(C2CCC(=O)NC2=O)c2ccc(CCCCCCc3cc4c5c(c3)C[C@@H](C(=O)N[C@@H](CCC(N)=O)c3ccccn3)N5C(=O)[C@@H](NC(=O)c3cc5cc(C(=O)P(=O)(O)O)ccc5[nH]3)CC4)cc21` (stereo partly drawn) [Compound I-277, 2-[[(2S,11S)-2-[[(1S)-3-carbamoyl-1-(pyridin-2-yl)propyl]carbamoyl]-6-[6-[1-(2,6-dioxopiperidin-3-yl)-3-methyl-2-oxo-1,3-benzodiazol-5-yl]hexyl]-12-oxo-1-azatricyclo[6.4.1.0^[4,13]]trideca-4(13),5,7-trien-11-yl]carbamoyl]-1H-indole-5-carbonylphosphonic acid], the DC50 under setting [1] fell in the range of 10 to 100 nM.

Consider `Cc1ncsc1-c1ccc([C@H](C)NC(=O)[C@@H]2C[C@@H](O)CN2C(=O)[C@@H](NC(=O)CCCCc2ccc(COC[C@H](CCC(N)=O)NC(=O)[C@@H]3Cc4cccc5c4N3C(=O)[C@@H](NC(=O)c3cc4cc(C(=O)P(=O)(O)O)ccc4[nH]3)CC5)cc2)C(C)(C)C)cc1` [Compound I-141, diammonium 2-[[(2S,11S)-2-[[(2S)-4-carbamoyl-1-[[4-(4-[[(2S)-1-[(2S,4R)-4-hydroxy-2-[[(1S)-1-[4-(4-methyl-1,3-thiazol-5-yl)phenyl]ethyl]carbamoyl]pyrrolidin-l-yl]-3,3-dimethyl-1-oxobutan-2-yl]carbamoyl]butyl)phenyl]methoxy]butan-2-yl]carbamoyl]-12-oxo-1-azatricyclo[6.4.1.0^[4,13]]trideca-4(13),5,7-trien-11-yl]carbamoyl]-1H-indole-5-carbonylphosphonate], for which, under setting [1], the DC50 lay in the range of 10 to 100 nM.

On to `Cc1cc(CO[C@H](C)[C@H](CCC(N)=O)NC(=O)[C@@H]2Cc3cccc4c3N2C(=O)[C@@H](NC(=O)c2cc3cc(C(=O)P(=O)(O)O)ccc3[nH]2)CC4)ccc1CCCCC(=O)N[C@H](C(=O)N1C[C@H](O)C[C@H]1C(=O)N[C@@H](C)c1ccc(-c2scnc2C)cc1)C(C)(C)C` [Compound I-218, diammonium 2-[[(2S,11S)-2-[[(3S,4R)-1-carbamoyl-4-[[4-(4-[[(2S)-1-[(2S,4R)-4-hydroxy-2-[[(1S)-1-[4-(4-methyl-1,3-thiazol-5-yl)phenyl]ethyl]carbamoyl]pyrrolidin-1-yl]-3,3-dimethyl-1-oxobutan-2-yl]carbamoyl]butyl)-3-methylphenyl]methoxy]pentan-3-yl]carbamoyl]-12-oxo-1-azatricyclo[6.4.1.0^[4,13]]trideca-4(13),5,7-trien-11-yl]carbamoyl]-1H-indole-5-carbonylphosphonate], for which the DC50 under setting [1] was less than 10 nM.

As to `Cc1ncsc1-c1ccc([C@H](C)NC(=O)[C@@H]2C[C@@H](O)CN2C(=O)[C@@H](NC(=O)CCCCc2cccc(NC(=O)[C@H](CCC(N)=O)NC(=O)[C@@H]3Cc4cccc5c4N3C(=O)C(CC(=O)c3cc4ccc(C(=O)P(=O)(O)O)cc4[nH]3)CC5)c2)C(C)(C)C)cc1` (stereo partly drawn) [Compound I-280], the DC50 under setting [1] lay in the range of 10 to 100 nM.

As to `Cn1c(=O)n(C2CCC(=O)NC2=O)c2ccc(N3CCN(CCCC(=O)N4CC[C@H]5CC[C@@H](C(=O)N[C@@H](CCC(N)=O)C(=O)NC(c6ccccc6)c6ccccc6)N5C(=O)[C@@H](NC(=O)c5cc6cc(C(=O)P(=O)(O)O)ccc6[nH]5)C4)CC3)cc21` (stereo partly drawn) [Compound I-168, 2-[[(5S,8S,10aR)-8-[[(1S)-3-carbamoyl-1-(diphenylmethylcarbamoyl)propyl]carbamoyl]-3-(4-[4-[1-(2,6-dioxopiperidin-3-yl)-3-methyl-2-oxo-1,3-benzodiazol-5-yl]piperazin-1-yl]butanoyl)-6-oxo-octahydropyrrolo[1,2-a][1,5]diazocin-5-yl]carbamoyl]-1H-indole-5-carbonylphosphonic acid], under setting [1], the DC50 was greater than 1000 nM.

On to `Cc1ncsc1-c1ccc(CNC(=O)[C@@H]2C[C@@H](O)CN2C(=O)[C@@H](NC(=O)CCc2ccc3ccc(CO[C@H](C)[C@H](CCC(N)=O)NC(=O)[C@@H]4Cc5cccc6c5N4C(=O)[C@@H](NC(=O)c4cc5cc(C(=O)P(=O)(O)O)ccc5[nH]4)CC6)cc3c2)C(C)(C)C)cc1` [Compound I-126], for which the DC50 under setting [1] is greater than 1000 nM.

For `Cc1ncsc1-c1ccc(CNC(=O)[C@@H]2C[C@@H](O)CN2C(=O)[C@@H](NC(=O)CCCCCc2cccc(CNC(=O)[C@H](CCC(N)=O)NC(=O)[C@@H]3Cc4cccc5c4N3C(=O)[C@@H](NC(=O)c3cc4cc(C(=O)P(=O)(O)O)ccc4[nH]3)CC5)c2)C(C)(C)C)cc1` [Compound I-222, 2-[[(2S,11S)-2-[[(1S)-3-carbamoyl-1--([[3-(5-[[(2S)-1-[(2S,4R)-4-hydroxy-2-([[4-(4-methyl-1,3-thiazol-5-yl)phenyl]methyl]carbamoyl)pyrrolidin-1-yl]-3,3-dimethyl-1-oxobutan-2-yl]carbamoyl]pentyl)phenyl]methyl]carbamoyl)propyl]carbamoyl]-12-oxo-1-azatricyclo[6.4.1.0^[4,13]]trideca-4(13),5,7-trien-11-yl]carbamoyl]-1H-indole-5-carbonylphosphonic acid], under setting [1], the DC50 was greater than 1000 nM.

With `Cc1ncsc1-c1ccc(CNC(=O)[C@@H]2C[C@@H](O)CN2C(=O)[C@@H](NC(=O)CC2CCN(c3ccc(CO[C@H](C)[C@H](CCC(N)=O)NC(=O)[C@@H]4Cc5cccc6c5N4C(=O)[C@@H](NC(=O)c4cc5cc(C(=O)P(=O)(O)O)ccc5[nH]4)CC6)cc3)CC2)C(C)(C)C)cc1` [Compound I-162, diammonium 2-[[(2S,11S)-2-[[(3S,4R)-1-carbamoyl-4-([4-[4-([[(2S)-1-[(2S,4R)-4-hydroxy-2-([[4-(4-methyl-1,3-thiazol-5-yl)phenyl]methyl]carbamoyl)pyrrolidin-1-yl]-3,3-dimethyl-1-oxobutan-2-yl]carbamoyl]methyl)piperidin-1-yl]phenyl]methoxy)pentan-3-yl]carbamoyl]-12-oxo-1-azatricyclo[6.4.1.0^[4,13]]trideca-4(13),5,7-trien-11-yl]carbamoyl]-1H-indole-5-carbonylphosphonate], the half-maximal degradation concentration (DC50) under setting [1] was greater than 1000 nM.

On to `Cc1ncsc1-c1ccc([C@H](C)NC(=O)[C@@H]2C[C@@H](O)CN2C(=O)[C@@H](NC(=O)Cc2cccc(OC[C@H](CCC(N)=O)NC(=O)[C@@H]3Cc4cccc5c4N3C(=O)[C@@H](NC(=O)c3cc4cc(C(=O)P(=O)(O)O)ccc4[nH]3)CC5)c2)C(C)(C)C)cc1` [Compound I-256, 2-[[(2S,11S)-2-[[(2S)-4-carbamoyl-1-[3-([[(2S)-1-[(2S,4R)-4-hydroxy-2-[[(1S)-1-[4-(4-methyl-1,3-thiazol-5-yl)phenyl]ethyl]carbamoyl]pyrrolidin-1-yl]-3,3-dimethyl-1-oxobutan-2-yl]carbamoyl]methyl)phenoxy]butan-2-yl]carbamoyl]-12-oxo-1-azatricyclo[6.4.1.0^[4,13]]trideca-4(13),5,7-trien-11-yl]carbamoyl]-1H-indole-5-carbonylphosphonic acid], for which the DC50 under setting [1] is greater than 1000 nM.

For the molecule `Cc1ncsc1-c1ccc([C@H](C)NC(=O)[C@@H]2C[C@@H](O)CN2C(=O)[C@@H](NC(=O)CCCCc2cccc(OC[C@H](CCC(N)=O)NC(=O)[C@@H]3CCCN3C(=O)[C@H](CC(C)C)NC(=O)c3cc4cc(C(=O)P(=O)(O)O)ccc4[nH]3)c2Cl)C(C)(C)C)cc1` [Compound I-239, diammonium 2-[[(2S)-1-[(2S)-2-[[(2S)-4-carbamoyl-1-[2-chloro-3-(4-[[(2S)-1-[(2S,4R)-4-hydroxy-2-[[(1S)-1-[4-(4-methyl-1,3-thiazol-5-yl)phenyl]ethyl]carbamoyl]pyrrolidin-1-yl]-3,3-dimethyl-1-oxobutan-2-yl]carbamoyl]butyl)phenoxy]butan-2-yl]carbamoyl]pyrrolidin-1-yl]-4-methyl-1-oxopentan-2-yl]carbamoyl]-1H-], the DC50 under setting [1] was less than 10 nM.

On to `Cn1c(=O)n(C2CCC(=O)NC2=O)c2ccc(CC[C@H]3CC[C@H](C(=O)N4CC[C@H]5CC[C@@H](C(=O)N[C@@H](CCC(N)=O)C(=O)NC(c6ccccc6)c6ccccc6)N5C(=O)[C@@H](NC(=O)c5cc6cc(C(=O)P(=O)(O)O)ccc6[nH]5)C4)CC3)cc21` (stereo partly drawn) [Compound I-203, 2-[[(5S,8S,10aR)-8-[[(1S)-3-carbamoyl-1-(diphenylmethylcarbamoyl)propyl]carbamoyl]-6-oxo-3-[(1r,4r)-4-[2-[1-(2,6-dioxopiperidin-3-yl)-3-methyl-2-oxo-1,3-benzodiazol-5-yl]ethyl]cyclohexanecarbonyl]-octahydropyrrolo[1,2-a][1,5]diazocin-5-yl]carbamoyl]-1H-indole-5-carbonylphosphonic acid], for which, under setting [1], the DC50 lay in the range of 10 to 100 nM.

In general, DC50 refers to the concentration at which degradation of the target reaches its halfway point.
